Experimental data as given in PubChem BioAssay AID330 (DTP/NCI, 2004).
Several values for one entry are separate records, joined by “and”; a condition that tells them apart may be missing. Equal values may be shown once. Toxic doses and inconclusive results are not listed. The calls were made as follows: active = survival T/C of 150% or more; inactive = T/C below 125% in these data.

System: P388 leukemia ip, CD2F1 mice, survival T/C
Experiment: NCI In Vivo Anticancer Drug Screen. Data for tumor model P388 Leukemia (intraperitoneal) in CD2F1 (CDF1) mice
Settings: endpoint: median survival time, higher = longer survival
Summary of the method: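 Mice carrying the transplanted tumor received test compound or vehicle. Survival was recorded in each group, and the value is the treated-group measurement divided by that of the vehicle-treated control group.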

[1] = dose: 50.0 mg/kg/injection, schedule: Q01DX005 (ip), vehicle: Klucel (hydroxypropylcellulose) (HPC)
[2] = dose: 100.0 mg/kg/injection, schedule: Q01DX005 (ip), vehicle: Klucel (hydroxypropylcellulose) (HPC)
[3] = dose: 50.0 mg/kg/injection, schedule: Q01DX009 (ip), vehicle: saline
[4] = dose: 100.0 mg/kg/injection, schedule: Q01DX009 (ip), vehicle: saline
[5] = dose: 200.0 mg/kg/injection, schedule: Q01DX009 (ip), vehicle: saline
[6] = dose: 100.0 mg/kg/injection, schedule: Q01DX001 (ip), vehicle: saline with Tween-80
[7] = dose: 200.0 mg/kg/injection, schedule: Q01DX001 (ip), vehicle: saline with Tween-80
[8] = dose: 400.0 mg/kg/injection, schedule: Q01DX001 (ip), vehicle: saline with Tween-80
[9] = dose: 60.0 mg/kg/injection, schedule: Q01DX005 (ip), vehicle: saline with Tween-80
[10] = dose: 120.0 mg/kg/injection, schedule: Q01DX005 (ip), vehicle: saline with Tween-80
[11] = dose: 240.0 mg/kg/injection, schedule: Q01DX005 (ip), vehicle: saline with Tween-80
[12] = dose: 60.0 mg/kg/injection, schedule: Q01DX005 (ip), vehicle: Klucel (hydroxypropylcellulose) (HPC)
[13] = dose: 120.0 mg/kg/injection, schedule: Q01DX005 (ip), vehicle: Klucel (hydroxypropylcellulose) (HPC)
[14] = dose: 50.0 mg/kg/injection, schedule: Q01DX009 (ip), vehicle: Klucel (hydroxypropylcellulose) (HPC)
[15] = dose: 100.0 mg/kg/injection, schedule: Q01DX009 (ip), vehicle: Klucel (hydroxypropylcellulose) (HPC)
[16] = dose: 200.0 mg/kg/injection, schedule: Q01DX009 (ip), vehicle: Klucel (hydroxypropylcellulose) (HPC)
[17] = dose: 100.0 mg/kg/injection, schedule: Q04DX002 (ip), vehicle: saline
[18] = dose: 200.0 mg/kg/injection, schedule: Q04DX002 (ip), vehicle: saline
[19] = dose: 100.0 mg/kg/injection, schedule: Q01DX005 (ip), vehicle: saline with Tween-80
[20] = dose: 200.0 mg/kg/injection, schedule: Q01DX005 (ip), vehicle: saline with Tween-80

Measured: T/C

CC1=C(O)C(=O)C=C2C1=CC=C1[C@@]2(C)CC[C@@]2(C)[C@@H]3C[C@](C)(C(=O)O)CC[C@]3(C)CC[C@]12C
inactive: dose: 0.19 mg/kg/injection, schedule: Q01DX009 (ip), vehicle: saline 101 % of control | dose: 0.39 mg/kg/injection, schedule: Q01DX009 (ip), vehicle: saline 101 % of control | dose: 0.78 mg/kg/injection, schedule: Q01DX009 (ip), vehicle: saline 97 % of control | dose: 1.56 mg/kg/injection, schedule: Q01DX009 (ip), vehicle: saline 87 % of control | dose: 3.12 mg/kg/injection, schedule: Q01DX009 (ip), vehicle: suspension in saline 91 % of control

COc1cc2c(cc1OC)-c1c(oc3c(CCC(C)C)c(O)ccc3c1=O)CO2
inactive: dose: 6.25 mg/kg/injection, schedule: Q01DX005 (ip), vehicle: Klucel (hydroxypropylcellulose) (HPC) 99 % of control | dose: 12.5 mg/kg/injection, schedule: Q01DX005 (ip), vehicle: Klucel (hydroxypropylcellulose) (HPC) 92 % of control and 94 % of control | dose: 25.0 mg/kg/injection, schedule: Q01DX005 (ip), vehicle: Klucel (hydroxypropylcellulose) (HPC) 88 % of control and 94 % of control | [1] 86 % of control | [2] 86 % of control

[Cl][Cr]([Cl])[Cl].[NH-]CC[N-]CC[NH-]
inactive: [3] 97 % of control | [4] 109 % of control | [5] 115 % of control

Oc1ccc2ccccc2c1N=Nc1ccc(Cl)cc1
inactive: dose: 100.0 mg/kg/injection, schedule: Q04DX003 (ip), vehicle: saline with Tween-80 100 % of control | dose: 200.0 mg/kg/injection, schedule: Q04DX003 (ip), vehicle: saline with Tween-80 100 % of control | dose: 400.0 mg/kg/injection, schedule: Q04DX003 (ip), vehicle: saline with Tween-80 90 % of control

CCC(c1ccc(OC)cc1)C(NC(=S)Nc1ccc(C)cc1)c1ccc(OC)cc1 (configuration not stated)
inactive: [6] 88 % of control | [7] 88 % of control | [8] 90 % of control

[Se]=[Mo]=[Se]
inactive: [9] 96 % of control | [10] 95 % of control | [11] 97 % of control

O=C1Nc2ccccc2/C1=N\N=c1/scc(-c2ccccc2)n1-c1ccccc1
inactive: [9] 101 % of control and 89 % of control | [10] 100 % of control | [11] 101 % of control and 97 % of control

CCCCCCC1(/C=C/c2ccc(Cl)c(Cl)c2)OCCS1 (configuration not stated)
inactive: dose: 12.5 mg/kg/injection, schedule: Q01DX009 (ip), vehicle: saline 96 % of control | dose: 25.0 mg/kg/injection, schedule: Q01DX009 (ip), vehicle: saline 104 % of control | [3] 100 % of control and 109 % of control and 95 % of control | [4] 95 % of control | [5] 88 % of control

COC(=O)CCc1cc(=O)oc2c3c(cc(OC)c12)OC1OC(=O)CC31 (configuration not stated)
inactive: dose: 8.75 mg/kg/injection, schedule: Q01DX005 (ip), vehicle: Klucel (hydroxypropylcellulose) (HPC) 90 % of control | dose: 17.5 mg/kg/injection, schedule: Q01DX005 (ip), vehicle: Klucel (hydroxypropylcellulose) (HPC) 95 % of control | dose: 35.0 mg/kg/injection, schedule: Q01DX005 (ip), vehicle: Klucel (hydroxypropylcellulose) (HPC) 90 % of control

CCCCCNC(=O)c1csc(-c2csc(CCNC(C)=O)n2)n1
inactive: dose: 12.5 mg/kg/injection, schedule: Q01DX009 (ip), vehicle: distilled water + Tween-80 100 % of control | dose: 25.0 mg/kg/injection, schedule: Q01DX009 (ip), vehicle: distilled water + Tween-80 103 % of control | dose: 50.0 mg/kg/injection, schedule: Q01DX009 (ip), vehicle: distilled water + Tween-80 92 % of control | dose: 100.0 mg/kg/injection, schedule: Q01DX009 (ip), vehicle: distilled water + Tween-80 91 % of control

N#Cc1nn(C(N)=O)c(N)c1C#N
inactive: [12] 104 % of control | [13] 105 % of control | dose: 240.0 mg/kg/injection, schedule: Q01DX005 (ip), vehicle: Klucel (hydroxypropylcellulose) (HPC) 103 % of control

CCn1nc(C(=O)O)c(=O)c2cc3c(cc21)OCO3
inactive: [14] 96 % of control | [15] 97 % of control | [16] 98 % of control

CSC(=S)n1nc(-c2ccccc2)c(N=Nc2cccc(F)c2)c1-c1ccccc1
inactive: dose: 100.0 mg/kg/injection, schedule: Q04DX002 (ip), vehicle: saline with Tween-80 100 % of control | dose: 200.0 mg/kg/injection, schedule: Q04DX002 (ip), vehicle: saline with Tween-80 97 % of control | dose: 400.0 mg/kg/injection, schedule: Q04DX002 (ip), vehicle: saline with Tween-80 87 % of control

COC1=C(C)C(=O)c2c(c(/C=N/NC(N)=S)c(Cl)n2C)C1=O
inactive: [6] 103 % of control | [7] 93 % of control | [8] 96 % of control

COc1cc(C2c3cc4c(cc3C(OC3CCCCO3)C3COC(=O)C23)OCO4)cc(OC)c1OC (configuration not stated)
inactive: dose: 3.12 mg/kg/injection, schedule: Q01DX005 (ip), vehicle: Klucel (hydroxypropylcellulose) (HPC) 117 % of control

CCOC(=O)c1c(C)[nH]c(-c2ccccc2)c1NS(=O)(=O)c1ccc(NC(C)=O)cc1
inactive: [9] 106 % of control | [10] 93 % of control | [11] 99 % of control

COc1cc(C2Oc3c(OC)cc(/C=C/C(=O)NCCc4ccc(O)cc4)cc3C2C(=O)NCCc2ccc(O)cc2)ccc1O (configuration not stated)
inactive: dose: 1.88 mg/kg/injection, schedule: Q01DX005 (ip), vehicle: Klucel (hydroxypropylcellulose) (HPC) 96 % of control | dose: 3.75 mg/kg/injection, schedule: Q01DX005 (ip), vehicle: Klucel (hydroxypropylcellulose) (HPC) 94 % of control | dose: 7.5 mg/kg/injection, schedule: Q01DX005 (ip), vehicle: Klucel (hydroxypropylcellulose) (HPC) 99 % of control | dose: 15.0 mg/kg/injection, schedule: Q01DX005 (ip), vehicle: Klucel (hydroxypropylcellulose) (HPC) 101 % of control

Cc1cc2ccccc2c[n+]1[O-]
inactive: [1] 97 % of control | [2] 112 % of control

CCCc1cc(=O)[nH]c(SCC(=O)O)n1
inactive: [9] 100 % of control | [10] 101 % of control | [11] 99 % of control

CC(=Nc1ccc(Cl)cc1N)c1c(O)cc(C)oc1=O
inactive: [12] 91 % of control | [13] 96 % of control

COC(=O)c1nc(Cl)[nH]c1CC#N
inactive: dose: 50.0 mg/kg/injection, schedule: Q01DX005 (ip), vehicle: saline 103 % of control | dose: 100.0 mg/kg/injection, schedule: Q01DX005 (ip), vehicle: saline 112 % of control | dose: 200.0 mg/kg/injection, schedule: Q01DX005 (ip), vehicle: saline 105 % of control

O=C1CCCC2OC12 (configuration not stated)
inactive: [17] 110 % of control | [18] 112 % of control

CN(OC(=O)C(C)(C)C)C(=O)C(C)(C)C
inactive: [19] 106 % of control | [20] 105 % of control | dose: 400.0 mg/kg/injection, schedule: Q01DX005 (ip), vehicle: saline with Tween-80 108 % of control

Nc1ccc2ccc(N)cc2c1
inactive: dose: 25.0 mg/kg/injection, schedule: Q01DX005 (ip), vehicle: saline with Tween-80 105 % of control | dose: 50.0 mg/kg/injection, schedule: Q01DX005 (ip), vehicle: saline with Tween-80 98 % of control and 104 % of control | [19] 103 % of control and 113 % of control | [20] 122 % of control and 123 % of control

O=[N+]([O-])c1ccc(OCCSc2ccccc2)cc1
inactive: dose: 50.0 mg/kg/injection, schedule: Q01DX009 (ip), vehicle: saline with Tween-80 90 % of control | dose: 100.0 mg/kg/injection, schedule: Q01DX009 (ip), vehicle: saline with Tween-80 98 % of control | dose: 200.0 mg/kg/injection, schedule: Q01DX009 (ip), vehicle: saline with Tween-80 100 % of control

O=C1CC(=O)NP(=O)(Oc2ccccc2)N1
inactive: [17] 103 % of control | [18] 100 % of control

O=C1CC(c2ccccc2)C(c2ccccc2)C1=O (configuration not stated)
inactive: dose: 12.5 mg/kg/injection, schedule: Q04DX003 (ip), vehicle: Klucel (hydroxypropylcellulose) (HPC) 107 % of control | dose: 25.0 mg/kg/injection, schedule: Q04DX003 (ip), vehicle: Klucel (hydroxypropylcellulose) (HPC) 102 % of control | dose: 50.0 mg/kg/injection, schedule: Q04DX003 (ip), vehicle: Klucel (hydroxypropylcellulose) (HPC) 102 % of control

CC(=NCCN=C(C)c1ccccc1O)c1ccccc1O
inactive: [14] 105 % of control | [15] 114 % of control | [16] 115 % of control
